The record followed here is the METLIN SMRT retention time set (Domingo-Almenara et al. 2019).

SMILES strings stand for the structures.

This series is described as follows: gradient 5% acetonitrile 3 min, to 50% in 2 min, to 85% in 15 min, held 3 min, 100 µL/min. The following applies: column: Zorbax Extend-C18 2.1 x 50 mm; eluents: water / acetonitrile, 0.1% formic acid. The method in brief:
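Pure standards were analyzed in mixtures of ~100 molecules using HPLC coupled to a quadrupole time-of-flight mass spectrometer, in both positive and negative ionization mode. Separation used a Zorbax Extend-C18 column (2.1 × 50 mm, 1.8 μm) at 100 μL/min, with water and acetonitrile each containing 0.1% formic acid. Dead and dwell volumes were 40 μL and 900 μL, and data were collected over 3 months. Retention time was read from computationally picked adduct peaks, each inspected manually.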
With `N#Cc1cccc(-c2nc(-c3ccc4c(c3)ncn4CCN3CCCCC3)no2)c1`, the RP-LC retention time was 632 s. For the compound `COc1ccc(N2C(=O)NC3CC2(C)Oc2ccc(OC)cc23)cc1` (stereo not given), the RP-LC retention time came out at 765 s. The value for `O=C(NCc1ccc(F)cc1F)C1CCN(c2cn[nH]c(=O)c2)CC1` was 639 s; that for `COC(=O)CS(=O)c1ccc(C(F)(F)F)cc1[N+](=O)[O-]` (stereo not given) was 730 s. As for `CCc1ccc(NC(=O)c2ccc(=O)n(CCN3CCCC3)c2)cc1`, the RP-LC retention time was 650 s. `COc1ccc(CN(CCC2(C(C)C)CCOC(C)(C)C2)C(C)=O)cc1OC` (stereo not given) gave an RP-LC retention time of 864 s. For `Clc1ccccc1-c1nc(N2CCCC2)c2ccccc2n1` the value was 696 s; for `Cc1cc(-c2nnc(-c3ccccc3)o2)c(C)n1CC(=O)N1CCN(c2ccccn2)CC1`, 649 s; for `O=C(Cc1ccsc1)N1CCC(n2c(-c3ccoc3)nc3cccnc32)C1` (stereo not given), 811 s. `COc1cccc(CNC(=O)Cn2c(C)nc3onc(C)c3c2=O)c1` yielded an RP-LC retention time of 727 s. Take `Cc1ccc2c(Nc3ccc(Cl)cc3)c(C(=O)N3CCSCC3)cnc2n1`: the RP-LC retention time was determined as 634 s.

`Cn1c(N2CCN(C(=O)COc3ccc(Cl)cc3)CC2)cc(=O)n(C)c1=O` registered an RP-LC retention time of 666 s. As for `O=C(Nc1nc2c(s1)CN(S(=O)(=O)C1CC1)CC2)c1cnn(-c2ccccc2)n1`, the RP-LC retention time came out at 855 s. The compound `CCc1ccccc1NC(=O)Cn1c(N)nc(COC)cc1=O` returned an RP-LC retention time of 598 s. Regarding `COc1ccc(C(=O)N2CCC3(CC2)N=C(c2cccc(Br)c2)NO3)c(OC)c1`, the RP-LC retention time is 832 s. On to `CC1CCN(C(=O)c2cc(S(=O)(=O)N3CCCC(C(=O)Nc4nccs4)C3)c[nH]2)CC1` (stereo not given), for which the RP-LC retention time turned out to be 756 s.

`Cc1cc2nc(C(=O)Nc3cc(F)ccc3C)cc(C)n2n1` came in with an RP-LC retention time of 1050 s. The compound `Cc1cc(C)c2[nH]c3c(c(=O)c2c1)CN(CC(=O)Nc1cccc(F)c1)CC3` came in with an RP-LC retention time of 640 s.

For the compound `COCCNS(=O)(=O)c1cccc(-c2nc(-c3ccccc3)no2)c1`, the RP-LC retention time is 972 s. On to `CCn1cnc(S(=O)(=O)N2CCCC(C(=O)Nc3ccc(C(C)C)cc3)C2)c1` (stereo not given), for which the RP-LC retention time came out at 878 s.

For `Cc1ccc(NC(=O)N2CCC(n3cnc4ccc(C)cc4c3=O)CC2)c(Cl)c1`, the RP-LC retention time came to 865 s.

In the case of `Cc1nc(-c2ccc(Cl)cc2)sc1C(=O)N1CCN(c2ncccn2)CC1`, the RP-LC retention time worked out at 961 s.

The compound `Cc1ccc(C2Cn3nnc(C(=O)N4CCC(C(=O)NC5CC5)CC4)c3CO2)cc1` (stereo not given) yielded an RP-LC retention time of 733 s.

For the compound `O=S(=O)(c1ccc(Cl)c(-c2nnc(-c3ccccc3)o2)c1)N1CCSCC1`, the RP-LC retention time was determined as 1070 s. The value for `O=C(NC1CC1)c1ccc(OCC2CCCN2C(=O)Cc2ccc(F)cc2)cc1` (stereo not given) was 813 s; that for `CCC(CC)NC(=O)C1CCCCC(=O)N1` (stereo not given) was 652 s.

Regarding `Cc1cc(C)nc(NC(=O)NCCCSc2ccccn2)n1`, the RP-LC retention time was found to be 671 s. Consider `O=C(Cn1nc(-c2ccco2)ccc1=O)NCc1ccco1`, for which the RP-LC retention time stood at 628 s. As to `CCCc1nc(-c2c(C)cc(C)nc2NC(=O)C2CCCCC2)no1`, the RP-LC retention time was determined as 876 s. For `CC(=O)Nc1nc(-c2ccc3c(c2)N(C)C(=O)C(C)O3)cs1` (stereo not given) the value was 739 s. As to `CNC(=O)C1CCCN(S(=O)(=O)c2ccc(OC)c(OC)c2)C1` (stereo not given), the RP-LC retention time came out at 657 s. As to `CCOC(=O)c1c(C)[nH]c(C(=O)N2CCCC(C(=O)NCCN3CCCCCC3)C2)c1C` (stereo not given), the RP-LC retention time amounted to 578 s. In turn, `CCc1nnc(-c2ccc3ccn(CC(=O)N4CCN(c5ccc(F)cc5)CC4)c3c2)o1` showed an RP-LC retention time of 878 s. Regarding `O=C(Nc1nc(-c2ccncc2)cs1)c1ccc(NS(=O)(=O)c2ccccc2)cc1`, the RP-LC retention time came to 589 s. For `O=C(CN1C(=O)CC(c2cccs2)=Nc2ccccc21)Nc1ccccc1Cl` the value was 980 s. On to `COCCn1cc(CCNC(=O)Nc2ccc(Br)c(C)c2)c2cccnc21`, for which the RP-LC retention time is 821 s. `COc1ccc(NC(=O)C2CCN(c3cc(N4CCSCC4)ncn3)CC2)cc1OC`: the RP-LC retention time came out at 627 s. The compound `Cc1ccc(N2CC(c3nc(-c4cccs4)no3)CC2=O)cc1` (stereo not given) gave an RP-LC retention time of 877 s. For `CCCCN(CC)CCNC(=O)C1CCC(=O)N(c2ccc(OC)cc2)C1c1ccc(F)cc1` (stereo not given), the RP-LC retention time worked out at 633 s.

In the case of `COc1ccc(-c2cc3c(=O)n(Cc4ccc(F)cc4)ccn3n2)cc1OC`, the RP-LC retention time was found to be 913 s. On to `Cc1cc(C)c(C)c(S(=O)(=O)NCC(=O)NCC2CCCO2)c1C` (stereo not given), for which the RP-LC retention time amounted to 724 s. For the compound `CSc1cccc(NC(=O)NCC(c2cccnc2)c2c[nH]c3ccccc23)c1` (stereo not given), the RP-LC retention time came to 677 s. `CCC1Oc2ccc(S(=O)(=O)N3CCC(C(=O)Nc4ccc(OC)cc4)CC3)cc2NC1=O` (stereo not given): the RP-LC retention time turned out to be 861 s. `O=C(CCc1csc(NC(=O)c2ccc(F)cc2)n1)NCc1nc2ccccc2[nH]1` displayed an RP-LC retention time of 577 s. As to `COc1ccccc1C(=O)Nc1nc(-c2ccc3c(c2)NC(=O)CO3)c(C)s1`, the RP-LC retention time came out at 889 s. Compound `CC(C(=O)N1CCN(c2ccccn2)CC1)n1c2ccccc2c2cnn(C)c(=O)c21` (stereo not given) displayed an RP-LC retention time of 627 s.

`CC(C)(C)NC(=O)N1CC(n2cc(C(=O)N3CCOCC3)nn2)C1` came in with an RP-LC retention time of 646 s. As to `CCCOc1nc2ccccc2nc1N1CCCC(C(=O)NC2CCCCC2C)C1` (stereo not given), the RP-LC retention time was 1310 s. For `CN1C(=O)c2cccnc2Sc2cc(C(=O)NCc3cccc(Cl)c3)ccc21` the value was 818 s; for `COc1ccc(Cl)cc1NC(=O)N(C)CCc1noc(COc2ccccc2F)n1`, 979 s; for `CCOc1ccccc1CNC(=O)C1CCCN(c2ccc(=O)n(-c3cccc(Cl)c3)n2)C1` (stereo not given), 968 s. The compound `COc1ccc(NC(=O)c2c(O)c3cccnc3n(-c3cccc(F)c3)c2=O)cc1F` returned an RP-LC retention time of 1210 s. In turn, `COc1cccc(C2CC(c3cccs3)=NN2C(=O)C(OC)c2ccccc2)c1O` (stereo not given) returned an RP-LC retention time of 937 s. `COc1cccc(CNC(=O)Cc2cn(C)c3ncccc23)c1OC`: the RP-LC retention time came out at 669 s.

For the compound `CCOc1cc(S(=O)(=O)Nc2ncccc2C)ccc1Br`, the RP-LC retention time amounted to 666 s.

Take `CC1CCC(NC(=O)C2CCN(c3cnn(Cc4ccccc4)c(=O)c3)CC2)CC1` (stereo not given): the RP-LC retention time was found to be 841 s.

`Cc1ccccc1Nc1c(-c2ccc(N(C)C)cc2)nc2ccccn12` came in with an RP-LC retention time of 767 s. The compound `Cc1noc(C)c1Cc1c(C(=O)NCC23CCC=C2N(C)C(=O)CC3)noc1C` (stereo not given) had an RP-LC retention time of 768 s. As to `COc1cc(C2CC(=O)N(CC(=O)N3CCCCC3)c3ccccc3S2)cc(OC)c1OC` (stereo not given), the RP-LC retention time amounted to 871 s. The value for `COc1cc(OC)cc(C(=O)N2CCn3cnnc3C2)c1` was 578 s; that for `Cc1nc(C)c(-c2ccc(SCC(=O)N3CCCc4ccccc43)nn2)s1` was 779 s. Regarding `Cc1nn(-c2cc(N3CCCCC3)ncn2)c(C)c1CCC(=O)NC(C)CCc1ccco1` (stereo not given), the RP-LC retention time was 941 s. `CCOC(=O)c1noc2ncnc(N3CCCCCC3)c12`: the RP-LC retention time amounted to 954 s. `NC(=O)C1CCN(C(=O)CSc2nc3c(c(-c4ccccc4)n2)CCCC3)CC1` displayed an RP-LC retention time of 702 s. The value for `Cc1nn(CCC(=O)Nc2ccc(F)cc2F)c(=O)c2nn(-c3ccccc3)c(C)c12` was 795 s; that for `CCN(CCNS(=O)(=O)c1ccc2c(c1)CCCC(=O)N2)Cc1ccccc1` was 608 s.

`CC1=C(c2ccc(F)cc2)S(=O)(=O)N=C1N1CCCN(C(=O)NC(C)C)CC1` had an RP-LC retention time of 746 s.

In the case of `Cc1noc(-c2cccc(OC3CN(C(=O)c4ccco4)C3)c2)n1`, the RP-LC retention time amounted to 789 s. The value for `Cc1nn(-c2ccc(C(=O)NCc3ccc4c(c3)OCO4)cc2)c2c1C(=O)CCC2` was 780 s; that for `Cc1ccc(C)c(NC(=O)Cn2c(N)nc(C)c(C)c2=O)c1` was 631 s; that for `COc1ccc(-n2nnc(-c3nsc(Nc4ccc(Cl)cc4)n3)c2C)cc1` was 1060 s.

`O=C(NC1CCCC1)c1cn(Cc2ccccc2)cc2c(=O)n(-c3ccccc3)nc1-2` came in with an RP-LC retention time of 1060 s. With `O=C(NC1CCCC1)C1CCCN(C(=O)c2cc(-c3ccccn3)n[nH]2)C1` (stereo not given), the RP-LC retention time stood at 616 s. Consider `Cn1nc(-c2nnc(-c3ccccc3)o2)c2c1CCN(S(=O)(=O)c1ccc3c(c1)CCCC3)C2`, for which the RP-LC retention time turned out to be 1110 s.

`CCc1nnc(NC(=O)CCc2ccc(-c3ccc(F)cc3)o2)s1` had an RP-LC retention time of 855 s.

In turn, `CN1C(=O)C2CCCCN2c2ccc(C(=O)NCCN3CCOCC3)cc21` (stereo not given) had an RP-LC retention time of 582 s. As for `CC(C)c1ccc(-c2nc(C3CC(=O)N(c4ccc(F)c(Cl)c4)C3)no2)cc1` (stereo not given), the RP-LC retention time turned out to be 1290 s.

Take `COc1ccccc1N1CCN(Cc2nc(-c3ccccc3)no2)CC1`: the RP-LC retention time amounted to 798 s. As to `CCCNC(=O)N(CC(=O)N1CCc2sccc2C1COc1ccc(C)cc1)CC1CCCO1` (stereo not given), the RP-LC retention time was determined as 1000 s. `Cc1cccc(-c2noc(-c3ccc(N4CCN(c5ccccc5F)CC4)nc3)n2)c1` displayed an RP-LC retention time of 613 s.
